This note sets out measurements from ChEMBL document CHEMBL2151037, “Synthesis of novel 1H-1,2,3-triazole tethered C-5 substituted uracil-isatin conjugates and their cytotoxic evaluation” (Eur J Med Chem, 2012).

Format in all cases: functional, cell-based
One experiment concerns DU-145. Kind of experiment: Antiproliferative activity against human DU145 cells after 24 hrs by MTT assay. Particulars: DU-145, 24 h.
For a further experiment, the system named is HeLa. Kind of experiment: Antiproliferative activity against human HeLa cells after 24 hrs by MTT assay. A general note: Tetrazolium assays rely on reduction of a dye to a coloured formazan, in cell work by metabolically active cells.
A further experiment deals with MCF7. Kind of experiment: Antiproliferative activity against human MCF7 cells after 24 hrs by MTT assay. The conditions noted are these: MCF7, 24 h.

On to `Cc1ccc2c(c1)C(=O)C(=O)N2CCn1cc(Cn2ccc(=O)n(Cc3cn(CCN4C(=O)C(=O)c5cc(C)ccc54)nn3)c2=O)nn1`, for which the IC50 (commonly the concentration that inhibits the measured activity by half) was determined as 38.2 µM with DU-145, 52.6 µM in the experiment on HeLa and 51.1 µM in the experiment with MCF7.
Take `O=C1C(=O)N(CCn2cc(Cn3cc(Cl)c(=O)n(Cc4cn(CCN5C(=O)C(=O)c6ccccc65)nn4)c3=O)nn2)c2ccccc21`: the IC50 in the experiment with DU-145 is 18.2 µM; in the experiment with HeLa, greater than 100 µM; in the experiment with MCF7 it was greater than 100 µM.
Take `O=C1C(=O)N(CCCn2cc(Cn3ccc(=O)n(Cc4cn(CCCN5C(=O)C(=O)c6ccccc65)nn4)c3=O)nn2)c2ccccc21`: the figures for the 50% inhibitory concentration (IC50) in the experiment with DU-145, in the experiment with HeLa and in the experiment on MCF7 were greater than 100 µM, 50.7 µM and 56.4 µM, respectively.
In the same order, the values of `O=C1C(=O)N(CCn2cc(Cn3ccc(=O)n(Cc4cn(CCN5C(=O)C(=O)c6cc(F)ccc65)nn4)c3=O)nn2)c2ccc(F)cc21` are greater than 100 µM, greater than 100 µM and 43.1 µM.
In the same order, the values of `O=C1C(=O)N(CCn2cc(Cn3cc(F)c(=O)n(Cc4cn(CCN5C(=O)C(=O)c6ccccc65)nn4)c3=O)nn2)c2ccccc21` are 28.6 µM, greater than 100 µM and greater than 100 µM.
In the same order, the values of `Cc1ccc2c(c1)C(=O)C(=O)N2CCCn1cc(Cn2ccc(=O)n(Cc3cn(CCCN4C(=O)C(=O)c5cc(C)ccc54)nn3)c2=O)nn1` are 63.7 µM, greater than 100 µM and greater than 100 µM.
`O=C1C(=O)N(CCn2cc(Cn3ccc(=O)n(Cc4cn(CCN5C(=O)C(=O)c6ccccc65)nn4)c3=O)nn2)c2ccccc21`: the IC50 is 57.8 µM in the experiment with DU-145, greater than 100 µM in the experiment on HeLa and 45.5 µM in the experiment on MCF7.
In the same order, the values of `O=C1C(=O)N(CCCn2cc(Cn3ccc(=O)n(Cc4cn(CCCN5C(=O)C(=O)c6cc(F)ccc65)nn4)c3=O)nn2)c2ccc(F)cc21` are 66.2 µM, 52.4 µM and 98.7 µM.
In the same order, the values of `O=C1C(=O)N(CCn2cc(Cn3cc(Cl)c(=O)n(Cc4cn(CCN5C(=O)C(=O)c6cc(Cl)ccc65)nn4)c3=O)nn2)c2ccc(Cl)cc21` are greater than 100 µM, 65.7 µM and 38.2 µM.
Taken in the same sequence, the figures for `O=C1C(=O)N(CCn2cc(Cn3cc(F)c(=O)n(Cc4cn(CCN5C(=O)C(=O)c6cc(Cl)ccc65)nn4)c3=O)nn2)c2ccc(Cl)cc21` were greater than 100 µM, greater than 100 µM and 63.3 µM.
Turning to `O=C1C(=O)N(CCCn2cc(Cn3ccc(=O)n(Cc4cn(CCCN5C(=O)C(=O)c6cc(Cl)ccc65)nn4)c3=O)nn2)c2ccc(Cl)cc21`, the IC50 with DU-145 was 13.9 µM; with HeLa it was 33.1 µM; with MCF7 it was greater than 100 µM.
As for `O=C1C(=O)N(CCn2cc(Cn3ccc(=O)n(Cc4cn(CCN5C(=O)C(=O)c6cc(Cl)ccc65)nn4)c3=O)nn2)c2ccc(Cl)cc21`, the figures for the concentration for half-maximal inhibition (IC50) in the experiment on DU-145, in the experiment with HeLa and in the experiment with MCF7 were 42.8 µM, greater than 100 µM and greater than 100 µM, respectively.
